Experiments:
[1] = Stability of purified HPLC peak left overnight in mobile phase; type: physicochemical; details: mobile phase 70:30:0.1 MeOH/H2O/AcOH
Procedure: Mobile phase: 70:30:0.1 MeOH/H2O/AcOH—premixed
Sample concentration: sample was dissolved at 100 mg/mL in 70:30 MeOH/H2O Peaks were collected manually at 0° C. and purified batches were kept at −20° C. at the end of each day. Peak 2 (title compound, 14.6 minute retention time) degrades about 6% when left at 4° C. overnight in mobile phase and degrades minimally (<1%) when left at −20° C. overnight. […] LCMS data of both products confirm masses consistent with the designations presented herein.

human EP2 receptor = target: T1, human EP2 receptor (Homo sapiens, UniProt P43116); experiment: Functional Assay #2AGii (Cerep EP2 Agonist Assay), cAMP production, HTRF detection; type: cell-based; details: mean of N=2, percent of control response to 10 μM PGE2, transfected CHO cells
T1 construct: host or cells: CHO
Source text: Alternative EP2 Receptor Agonism Assay
(Cerep, Catalog reference 758-54a; WILSON, R. J., RHODES, S. A., WOOD, R. L., SHIELD, V. J., NOEL, L. S., GRAY, D. W. and GILES H. (2004), Functional pharmacology of human prostanoid EP2 and EP4 receptors, Eur. J. Pharmacol., 501, 49.)
Evaluation of the agonist activity of compounds at the human EP2 receptor in transfected CHO cells, determined by measuring their effects on cAMP production using the HTRF detection method.
(§1) The cells are suspended in HBSS buffer (Invitrogen) complemented with HEPES 20 mM (pH 7.4) and 500 μM IBMX, then distributed in microplates at a density of 10^4 cells/well and incubated for 30 minutes at 37° C. in the absence (control) or presence of the test compound or the reference agonist. For stimulated control measurements, separate assay wells contain 10 μM PGE2. Following incubation, the cells are lysed and the fluorescence acceptor (D2-labeled cAMP) and fluorescence donor (anti-cAMP antibody labeled with europium cryptate) are added. After 60 minutes at room temperature, the fluorescence transfer is measured at λex=337 nm and λem=620 and 665 nm using a microplate reader (Rubystar, BMG). The cAMP concentration is determined by dividing the signal measured at 665 nm by that measured at 620 nm (ratio). The results are expressed as a percent of the control response to 10 μM PGE2. The standard reference agonist is PGE2, which is tested in each experiment at several concentrations to generate a concentration-response curve from which its EC50 value is calculated.

human EP4 receptor = target: T2, human EP4 receptor (Homo sapiens, UniProt P35408); experiment: Functional Assay #4AGii (Cerep EP4 Agonist Assay), cAMP production, HTRF detection; type: cell-based; details: mean of N=2, percent of control response to 1 μM PGE2, transfected CHO cells
T2 construct: host or cells: CHO
Procedure: Alternative EP4 Receptor Agonism Assay
(Cerep, Catalog Reference 758-49a; Wilson, R. J., et al., Ibid.)
Evaluation of the agonist activity of compounds at the human EP4 receptor in transfected CHO cells, determined by measuring their effects on cAMP production using the HTRF detection method.
as §1, with “2.10^4” for “10^4”, “10” for “30”, “room temperature” for “37° C.”, “1” for “10”

human EP1 receptor = target: T3, human EP1 receptor (Homo sapiens, UniProt P34995); experiment: Functional Assay #1AGii (Cerep EP1 Agonist Assay), cytosolic Ca2+ mobilization, fluorimetric detection; type: cell-based; details: mean of N=2, percent of control response to 100 nM PGE2, transfected HEK-293 cells
T3 construct: host or cells: HEK-293
T3 sequence (P34995 1-402): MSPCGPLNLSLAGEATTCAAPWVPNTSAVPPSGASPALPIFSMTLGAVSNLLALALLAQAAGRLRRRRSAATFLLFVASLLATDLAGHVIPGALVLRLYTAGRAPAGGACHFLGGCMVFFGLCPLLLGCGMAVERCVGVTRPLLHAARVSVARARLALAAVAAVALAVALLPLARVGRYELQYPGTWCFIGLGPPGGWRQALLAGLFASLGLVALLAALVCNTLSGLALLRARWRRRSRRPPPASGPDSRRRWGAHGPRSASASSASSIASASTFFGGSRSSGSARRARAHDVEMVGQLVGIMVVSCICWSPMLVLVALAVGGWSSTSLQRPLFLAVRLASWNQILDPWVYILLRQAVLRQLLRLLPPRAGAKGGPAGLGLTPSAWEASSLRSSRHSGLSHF
Source text: Alternative EP1 Receptor Agonism Assay
(Cerep, Catalog reference 722-55a; UNGRIN, M. D., SINGH L. M. R., STOCCO, R., SAS, D. E. and ABRAMOVITZ, M. (1999), An automated aequorin luminescence-based functional calcium assay for G-Protein-Coupled Receptors. Analytical Biochem., 272, 34.)
Evaluation of the agonist activity of compounds at the human EP1 receptor in transfected HEK-293 cells, determined by measuring their effect on cytosolic Ca^2+ ion mobilization using a fluorimetric detection method.
The cells are suspended in DMEM buffer (Invitrogen), then distributed in microplates at a density of 3.10^4 cells/well. The fluorescent probe (Fluo4 NR, Invitrogen) mixed with probenicid in HBSS buffer (Invitrogen) complemented with 20 mM Hepes (Invitrogen) (pH 7.4) is then added into each well and equilibrated with the cells for 30 minutes at 37° C. then 30 minutes at 22° C. Thereafter, the assay plates are positioned in a microplate reader (CellLux, PerkinElmer) which is used for the addition of the test compound, reference agonist or HBSS buffer (basal control), and the measurements of changes in fluorescence intensity which varies proportionally to the free cytosolic Ca^2+ ion concentration. For stimulated control measurements, PGE2 at 100 nM is added in separate assay wells.
The results are expressed as a percent of the control response to 100 nM PGE2. The standard reference agonist is PGE2, which is tested in each experiment at several concentrations to generate a concentration-response curve from which its EC50 value is calculated.

T2 sequence (P35408 whole entry): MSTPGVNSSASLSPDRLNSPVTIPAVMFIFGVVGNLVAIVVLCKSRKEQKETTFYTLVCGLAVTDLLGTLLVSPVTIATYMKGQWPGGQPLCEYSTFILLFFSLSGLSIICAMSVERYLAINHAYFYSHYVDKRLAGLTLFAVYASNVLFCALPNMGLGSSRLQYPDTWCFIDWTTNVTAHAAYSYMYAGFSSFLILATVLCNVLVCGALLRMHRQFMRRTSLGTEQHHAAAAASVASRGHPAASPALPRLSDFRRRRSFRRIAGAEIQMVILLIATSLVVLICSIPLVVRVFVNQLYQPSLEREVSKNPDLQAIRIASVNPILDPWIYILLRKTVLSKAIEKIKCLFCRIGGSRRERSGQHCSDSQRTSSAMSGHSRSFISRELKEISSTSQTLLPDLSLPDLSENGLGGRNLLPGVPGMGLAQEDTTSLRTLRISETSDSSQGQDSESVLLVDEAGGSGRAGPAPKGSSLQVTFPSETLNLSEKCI
T1 sequence (P43116 whole entry): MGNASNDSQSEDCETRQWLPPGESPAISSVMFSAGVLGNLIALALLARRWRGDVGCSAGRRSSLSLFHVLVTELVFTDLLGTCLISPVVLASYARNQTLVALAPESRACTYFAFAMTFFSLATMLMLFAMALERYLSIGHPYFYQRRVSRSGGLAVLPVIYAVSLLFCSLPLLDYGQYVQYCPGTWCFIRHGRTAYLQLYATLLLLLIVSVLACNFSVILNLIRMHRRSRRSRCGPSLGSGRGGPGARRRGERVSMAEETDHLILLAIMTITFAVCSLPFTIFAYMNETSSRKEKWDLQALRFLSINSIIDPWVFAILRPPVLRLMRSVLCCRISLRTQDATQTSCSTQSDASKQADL

| SMILES | degradation when left overnight in mobile phase ([1]; 4° C. overnight) | degradation when left overnight in mobile phase ([1]; −20° C. overnight) | % Control Agonist response @ compound concentration (human EP2 receptor; 0.1 μM) | % Control Agonist response @ compound concentration (human EP2 receptor; 1 μM) | % Control Agonist response @ compound concentration (human EP2 receptor; 10 μM) | % Control Agonist response @ compound concentration (human EP4 receptor; 0.1 μM) | % Control Agonist response @ compound concentration (human EP4 receptor; 1 μM) | % Control Agonist response @ compound concentration (human EP4 receptor; 10 μM) | % Control Agonist response @ compound concentration (human EP1 receptor; 0.1 μM) | % Control Agonist response @ compound concentration (human EP1 receptor; 1 μM) | % Control Agonist response @ compound concentration (human EP1 receptor; 10 μM) |
| --- | --- | --- | --- | --- | --- | --- | --- | --- | --- | --- | --- |
| O=C(O)CCC/C=C\C[C@H]1C(=O)C[C@H](F)[C@@H]1/C=C/[C@@H](O)C1Cc2ccccc2C1 (single isomer, unassigned) [Example 17] | about 6% | < 1% |  |  |  |  |  |  |  |  |  |
| O=C(O)CCC/C=C\C[C@H]1C(=O)C[C@@H](O)[C@@H]1/C=C/[C@@H](O)c1cc2ccccc2s1 [Example 7, (Z)-7-((1R,2R,3R)-2-((R,E)-3-(benzo[b]thiophen-2-yl)-3-hydroxyprop-1-enyl)-3-hydroxy-5-oxocyclopentyl)hept-5-enoic Acid] |  |  | 0% | −1% | 5% | −1% | 4% | 29% | 80% | 88% | 144% |

Reference: patent US8063240B2, “Prostaglandin E1 and E2 analogs for the treatment of various medical conditions” (Cayman Chemical Company, Incorporated, priority 2007, dated 2011)
